# Experimental data from US20260240832A1, “USE OF NITROXOLINE COMPOUND IN ENHANCING EFFECT OF ANTIBACTERIAL AGENT” (Jiangsu Yahong Meditech Co., Ltd., priority 2022, published 2026).
# Read-outs that look alike come from different tables or passages of the source.
# System: carbapenem-resistant Acinetobacter baumannii
# Assay: Chessboard microbroth dilution MIC/FIC, compound 2 in combination with polymyxin
# Assay type: cell-based
# Conditions: for MIC: Acinetobacter baumannii, read-out: Compound 2 MIC alone; for Compound 2 MIC in combination: with polymyxin
# Source text: This experiment is designed to determine the minimum inhibitory concentration (MIC) of compound 2 in combination with polymyxin against carbapenem-resistant Acinetobacter baumannii and to calculate the fractional inhibitory concentration (FIC) index.
# Test bacteria: 10 strains of carbapenem-resistant Acinetobacter baumannii are clinically isolated strains, and are provided by Shanghai Junji Medical Laboratory Co., Ltd.
# According to the recommendation of the Clinical and Laboratory Standards Institute (CLSI), the microbroth dilution method designed by the chessboard method was used to determine the minimum inhibitory concentration (MIC) of compound 2 in combination with polymyxin against the above strains, and the fractional inhibitory concentration (FIC) index was calculated.
# Compound 2 was dissolved in dimethyl sulfoxide to obtain a stock solution I with a concentration of 51200 mg/L. The stock solution I was subjected to 1:1 gradient dilution with dimethyl sulfoxide to obtain a dilution solution with a concentration range of 51200 to 25 mg/L. The corresponding concentrations were added to sterile water for 100-fold dilution to obtain working solution I with a concentration range of 512 to 0.25 mg/L.
# Polymyxin was dissolved in sterile water to obtain a stock solution with a concentration of 5120 mg/L. The […] stock solution was subjected to 1:1 gradient dilution with sterile water to obtain a working solution II with a concentration range of 512 to 0.25 mg/L.
# According to the method in Example 1, a drug sensitive plate was prepared with working solution I and working solution II, and the specific process will not be repeated here.
# (2) The culture medium of the bacterial solution: Cation-Adjusted Mueller-Hinton Broth (CAMHB), a product of BBL, USA, batch number 9015952.
# (3) Formulation method of bacterial solution: According to the direct colony suspension method, the test bacteria cultured overnight were prepared into a 0.5 McFarland turbidity tube using physiological saline. Then, the resulting solution was dilute 100 times with the above culture medium. 100 μL of the resulting bacterial solution was mixed well with the solution (100 μL) in each well of the drug sensitivity plate, and the final inoculation amount was 10^5 CFU/mL.
# (4) Culture conditions: Culturing at 35±2° C. for 20 hours in air.
# (1) The experimental results were determined according to the standard of CLSI 2020 M100 30th edition.
# wherein: FIC≤0.5 indicates synergistic effect; 0.5<FIC≤1.0 indicates additive effect; 1<FIC≤2.0 indicates irrelevant effect; and FIC>2 indicates antagonistic effect.
# [1] = strain 18-J11-001, compound 2 + polymyxin
# [2] = strain 18-J11-002, compound 2 + polymyxin
# [3] = strain 18-J11-034, compound 2 + polymyxin
# [4] = strain 18-J11-097, compound 2 + polymyxin
# [5] = strain 18-J15-030, compound 2 + polymyxin
# [6] = strain 18-J21-095, compound 2 + polymyxin
# [7] = strain 18-J24-015, compound 2 + polymyxin
# [8] = strain 18-J24-033, compound 2 + polymyxin
# [9] = strain 18-J40-021, compound 2 + polymyxin
# [10] = strain 18-J51-052, compound 2 + polymyxin
smiles,measurement,setting,value
"O=[N+]([O-])c1c(Cl)c(F)c2cccnc2c1O [Compound 2, 5-fluoro-6-chloro-7-nitroquinolin-8-ol]",MIC,strain 18-J11-001,8 µg/mL
same,MIC,strain 18-J11-002,4 µg/mL
same,MIC,strain 18-J11-034,4 µg/mL
same,MIC,strain 18-J11-097,4 µg/mL
same,MIC,strain 18-J15-030,4 µg/mL
same,MIC,strain 18-J21-095,4 µg/mL
same,MIC,strain 18-J24-015,4 µg/mL
same,MIC,strain 18-J24-033,4 µg/mL
same,MIC,strain 18-J40-021,4 µg/mL
same,MIC,strain 18-J51-052,4 µg/mL
same,change of the MIC of polymyxin by the combination,compound 2 + polymyxin,significantly reduce
same,effect of the combination (summary of Table 3),compound 2 + polymyxin,synergistic effect or additive effect
same,FIC index,[1],0.375
same,Results,[1],Synergistic
same,Compound 2 MIC in combination,strain 18-J11-001,1 µg/mL
same,FIC index,[2],0.500
same,Results,[2],Synergistic
same,Compound 2 MIC in combination,strain 18-J11-002,1 µg/mL
same,FIC index,[3],0.750
same,Results,[3],Additive
same,Compound 2 MIC in combination,strain 18-J11-034,1 µg/mL
same,FIC index,[4],0.375
same,Results,[4],Synergistic
same,Compound 2 MIC in combination,strain 18-J11-097,0.5 µg/mL
same,FIC index,[5],0.750
same,Results,[5],Additive
same,Compound 2 MIC in combination,strain 18-J15-030,1 µg/mL
same,FIC index,[6],1.000
same,Results,[6],Additive
same,Compound 2 MIC in combination,strain 18-J21-095,2 µg/mL
same,FIC index,[7],0.500
same,Results,[7],Synergistic
same,Compound 2 MIC in combination,strain 18-J24-015,1 µg/mL
same,FIC index,[8],0.625
same,Results,[8],Additive
same,Compound 2 MIC in combination,strain 18-J24-033,2 µg/mL
same,FIC index,[9],0.500
same,Results,[9],Synergistic
same,Compound 2 MIC in combination,strain 18-J40-021,1 µg/mL
same,FIC index,[10],0.500
same,Results,[10],Synergistic
same,Compound 2 MIC in combination,strain 18-J51-052,1 µg/mL
